Measurements taken from article PMC12349723, “Computationally accelerated identification of P-glycoprotein inhibitors” (PLOS One, 2025).
Read-outs that look alike come from different tables or passages of the source.

Test system: DU145-TXR cells
Assay: MTT viability assay, reversal of MDR (re-sensitization to paclitaxel) in P-gp overexpressing DU145-TXR cells
Format: cell-based, human
Conditions: for % Survival, mean / % Survival: 15 µM compound + 500 nM PTX (Paclitaxel, Taxol); for % Survival, mean / % Survival / viability at 15 µM: DU145-TXR; for Re-sensitization of DU145-TXR cells to PTX (reversal of MDR): 15 µM compound with or without 500 nM PTX, 48 h, MTT, re-sensitization = 30% or greater decrease in cell viability; for viability at 15 µM: Homo sapiens, 15 µM Compound Alone
Method: The chemotherapeutic sensitive DU145 human prostate cancer cells and the multidrug resistant sub-line, DU145-TXR, were generous gifts from Dr. Evan Keller (University of Michigan, Ann Arbor, MI). The MDR, P-gp overexpressing DU145-TXR cells were maintained under positive selection pressure by supplementing complete medium with 10 nM paclitaxel (Acros Organics, NJ). In addition to the aforementioned cell lines, the chemotherapeutic sensitive A2780 ovarian cancer cells (93112519, Sigma) and the multidrug resistant A2780-ADR (93112520, Sigma) were maintained in complete RPMI media consisting of RPMI-1640 with L-glutamine, 10% fetal bovine serum (FBS; Corning), 100 U/mL penicillin and 100 μg/mL streptomycin in a humidified incubator at 37 °C and 5% CO2. The MDR, P-gp overexpressing A2780-ADR cell line was maintained under positive selection pressure by supplementing complete medium with 100 nM doxorubicin (Fisher Scientific, NJ). The non-cancerous HFL1 (human lung fibroblast) cell line cell line was a generous gift from Dr. Robert Harrod (Southern Methodist University, Dallas, TX) and was maintained in complete F12K media consisting of F12K with 10% fetal bovine serum, 100 U/mL penicillin, and 100 µg/mL streptomycin (Gibco). Flasks and 96 well plates that were used with the non-cancerous line HFL1 were pre-treated with 0.1 mg/ml Collagen Type 1 (Gibco) and rinsed with PBS (Fisher).
Culture of the DU145, DU145-TXR, and HFL1 cell lines was performed as described in [8]. Culture of the A2780 and A2780-ADR cell lines was performed as described in [9]. MTT assays were performed as described in [8] with minor modifications. LC-MS/MS accumulation assays were performed as described in {Nanayakkara, 2018 #173} [9] with some modifications. […] The inhibitor concentration was lowered to 15 µM here, as the goal of the study was to identify compounds that were effective in reversing MDR at low concentrations, and to determine if the expanded virtual-assisted methods improved on our first-draft attempt. Compounds 56–98 were pre-screened using Resazurin cell viability assays: cells were incubated with 15 µM compound with or without 500 nM PTX for 48 hours, after which cell survival was assessed similar to [39]. Data represent the mean of two separate experiments, with n = 3 samples per experiment (n = 6 total) (S4 Table). The top performing compounds from this initial screen were re-tested with MTT viability assays against DU145-TXR cells, as described below.
MTT assays measure the reduction of yellow, water soluble 3-(4,5-dimethylthiazol-2-yl)-2,5-diphenyltetrazolium bromide (MTT) to blue, insoluble formazan crystals by cellular reductase processes in living cells. Cells were trypsinized from monolayers and seeded in complete medium in 96 well plates. Cancerous cell lines (DU145, DU145-TXR, A2780, A2780-ADR) were seeded at 3,000 cells per well in complete RPMI medium. The non-cancerous HFL1 line was seeded at 4,000 cells per well in complete F12K medium, in collagen-treated plates (Collagen Type 1, Gibco). Cells were incubated with experimental compounds for 48 hours at 37 °C and 5% CO2 in a humidified incubator. At 48 hours, MTT was added (20 µL/well of 5 mg/mL MTT in PBS) to each well. After incubation for 4 hours, the media was removed, and the formazan crystals were dissolved in 100 µL DMSO per well. Plates containing the semi-adherent A2780 or A2780-ADR lines were spun at 1400 rpm for 3 minutes prior to aspiration of media, and the addition of DMSO. Plates were shaken for 10 minutes at 500 rpm on an Orbital shaker (LabDoctor from MidSci, St Louis, MO). The absorbance was measured at 570 nm using a Bio-Tek Cytation 5 (Bio-Tek, Winooski, VT). The measured absorbance value was correlated with the number of metabolically active cells in that well, corrected for absorbance of media. […]

[1] = mean of 8 samples, read-out: % Survival, mean
[2] = trial 1, sample 1, read-out: % Survival
[3] = trial 1, sample 2, read-out: % Survival
[4] = trial 1, sample 3, read-out: % Survival
[5] = trial 1, sample 4, read-out: % Survival
[6] = trial 2, sample 1, read-out: % Survival
[7] = trial 2, sample 2, read-out: % Survival
[8] = trial 2, sample 3, read-out: % Survival
[9] = trial 2, sample 4, read-out: % Survival

| Compound | % Survival, mean (mean of 8 samples) | % Survival (trial 1, sample 1) | % Survival (trial 1, sample 2) | % Survival (trial 1, sample 3) | % Survival (trial 1, sample 4) | % Survival (trial 2, sample 1) | % Survival (trial 2, sample 2) | % Survival (trial 2, sample 3) | % Survival (trial 2, sample 4) | Re-sensitization of DU145-TXR cells to PTX (reversal of MDR) | viability at 15 µM [1] | viability at 15 µM [2] | viability at 15 µM [3] | viability at 15 µM [4] | viability at 15 µM [5] | viability at 15 µM [6] | viability at 15 µM [7] | viability at 15 µM [8] | viability at 15 µM [9] |
| --- | --- | --- | --- | --- | --- | --- | --- | --- | --- | --- | --- | --- | --- | --- | --- | --- | --- | --- | --- |
| O=S(=O)(CCSc1nnc(-c2ccccc2)c2ccccc12)c1ccccc1 [Compound 96, O=S(=O)(CCSc1nnc(-c2ccccc2)c2ccccc12)c1ccccc1] | 55.3% | 56% | 66% | 66% | 63% | 47% | 50% | 48% | 46% | re-sensitized DU145-TXR cells to PTX | 89.2% | 101% | 100% | 98% | 93% | 85% | 85% | 80% | 71% |
| O=S(=O)(Cc1nc2ccccc2n1CC(O)c1ccc(Cl)cc1)c1ccccc1 (stereo not shown) [Compound 97, OC(Cn1c(CS(=O)(=O)c2ccccc2)nc2ccccc12)c1ccc(Cl)cc1] | 34.9% | 26% | 30% | 24% | 42% | 44% | 41% | 30% | 42% | re-sensitized DU145-TXR cells to PTX | 87.2% | 107% | 82% | 82% | 83% | 77% | 89% | 88% | 90% |
| COc1cccc(N2CCN(c3ccc4nnc(CCC(=O)Nc5ccc(F)c(F)c5)n4n3)CC2)c1 [Compound 101, COc1cccc(c1)N1CCN(CC1)c1ccc2nnc(CCC(=O)Nc3ccc(F)c(F)c3)n2n1] | 57.4% | 48% | 48% | 37% | 48% | 83% | 70% | 66% | 58% | re-sensitized DU145-TXR cells to PTX | 112% | 121% | 110% | 111% | 113% | 117% | 106% | 109% | 104% |
| Cc1ccc(-c2noc(-c3cn(Cc4ccc(NS(=O)(=O)c5ccccc5F)cc4)cn3)n2)cc1 [Compound 103, Cc1ccc(cc1)-c1noc(n1)-c1cn(Cc2ccc(NS(=O)(=O)c3ccccc3F)cc2)cn1] | 19.9% | 11% | 11% | 11% | 14% | 32% | 27% | 27% | 28% | re-sensitized DU145-TXR cells to PTX | 76.4% | 58% | 50% | 48% | 52% | 108% | 104% | 94% | 96% |
| Cc1onc(-c2ccccc2)c1-c1nnc(Cn2cnc3ccccc3c2=O)o1 [Compound 111, Cc1onc(c1-c1nnc(Cn2cnc3ccccc3c2=O)o1)-c1ccccc1] | 41.1% | 30% | 34% | 44% | 39% | 51% | 48% | 46% | 38% | re-sensitized DU145-TXR cells to PTX | 102% | 111% | 93% | 90% | 94% | 106% | 115% | 108% | 103% |
| O=C(NCc1cccc(F)c1)c1nnn2c1Sc1c(C(=O)NCc3cccc(F)c3)nnn1CC2 [Compound 122, Fc1cccc(CNC(=O)c2nnn3CCn4nnc(C(=O)NCc5cccc(F)c5)c4Sc23)c1] | 60.4% | 61% | 55% | 61% | 62% | 65% | 63% | 54% | 61% | re-sensitized DU145-TXR cells to PTX | 106% | 102% | 105% | 85% | 102% | 123% | 107% | 106% | 114% |
| O=C(c1nc(-c2ccccn2)no1)N1CCN(c2nsc3ccccc23)CC1 [Compound 124, O=C(N1CCN(CC1)c1nsc2ccccc12)c1nc(no1)-c1ccccn1] | 75.6% | 62% | 72% | 95% | 73% | 91% | 86% | 67% | 58% | re-sensitized DU145-TXR cells to PTX | 98.6% | 96% | 102% | 79% | 95% | 114% | 94% | 103% | 106% |
